Data: patent US7067503B2, “17-aryl linker derivatised estrogen 3-sulphamates as inhibitors of steroid sulphatase” (priority 2000, dated 2006)
Read-outs that look alike come from different tables or passages of the source.

How the values were obtained:
STS = molecular target: T1, STS (Homo sapiens, UniProt P08842); assay: Plate assay, % inhibition
T1 sequence (P08842 22-583): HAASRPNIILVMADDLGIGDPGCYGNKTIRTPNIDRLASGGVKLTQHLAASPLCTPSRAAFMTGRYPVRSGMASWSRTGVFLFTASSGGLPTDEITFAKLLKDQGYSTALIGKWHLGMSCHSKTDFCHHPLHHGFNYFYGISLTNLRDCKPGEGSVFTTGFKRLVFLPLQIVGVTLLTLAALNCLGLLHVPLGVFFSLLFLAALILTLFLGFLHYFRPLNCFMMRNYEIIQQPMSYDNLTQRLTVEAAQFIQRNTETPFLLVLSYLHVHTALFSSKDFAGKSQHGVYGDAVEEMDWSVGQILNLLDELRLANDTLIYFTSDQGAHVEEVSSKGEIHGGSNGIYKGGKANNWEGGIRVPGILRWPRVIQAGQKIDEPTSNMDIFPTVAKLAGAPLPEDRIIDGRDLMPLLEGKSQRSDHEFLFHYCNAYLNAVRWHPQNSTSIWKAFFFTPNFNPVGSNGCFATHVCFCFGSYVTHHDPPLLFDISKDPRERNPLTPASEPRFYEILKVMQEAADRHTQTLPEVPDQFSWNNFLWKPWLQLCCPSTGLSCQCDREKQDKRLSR

T47D cell = T47D cell growth, % inhibition; type: cell-based; settings: Homo sapiens
steroid sulphatase = molecular target: T2, steroid sulphatase (Homo sapiens, UniProt P08842); assay: Inhibition of steroid sulphatase activity in placental microsomes (Protocol 2); type: biochemical; settings: for inhibition at 0.01 µM / inhibition at 0.1 µM / inhibition at 10 µM: read-out: Placental Microsomes, % inhibition
T2 construct: Sulphatase-positive human placenta from normal term pregnancies are thoroughly minced with scissors; from tissue; host or cells: human term placenta (2000 g supernatant / microsomes)
Experimental: Inhibition of Steroid Sulphatase Activity in Placental Microsomes
Sulphatase-positive human placenta from normal term pregnancies are thoroughly minced with scissors and washed once with cold phosphate buffer (pH 7.4, 50 mM) then re-suspended in cold phosphate buffer (5 ml/g tissue). Homogenisation is accomplished with an Ultra-Turrax homogeniser, using three 10 second bursts separated by 2 minute cooling periods in ice. Nuclei and cell debris are removed by centrifuging (4° C.) at 2000 g for 30 minutes and portions (2 ml) of the supernatant are stored at 20° C.
Incubations (1 ml) are carried out using a protein concentration of 100 mg/ml, substrate concentration of 20 mM [6,7–3H]oestrone-3-sulphate (specific activity 60 Ci/mmol from New England Nuclear, Boston, Mass., U.S.A.) and an incubation time of 20 minutes at 37° C. If necessary eight concentrations of compounds are employed: 0 (i.e. control); 0.05 mM; 0.1 mM; 0.2 mM; 0.4 mM; 0.6 mM; 0.8 mM; 1.0 mM. After incubation each sample is cooled and the medium (1 ml) was pipetted into separate tubes containing [14C]oestrone (7×10^3 dpm) (specific activity 97 Ci/mmol from Amersham International Radiochemical Centre, Amersham, U.K.). The mixture is shaken thoroughly for 30 seconds with toluene (5 ml). […] A portion (2 ml) of the organic phase was removed, evaporated and the 3H and 14C content of the residue determined by scintillation spectrometry. The mass of oestrone-3-sulphate hydrolysed is calculated from the 3H counts obtained (corrected for the volumes of the medium and organic phase used, and for recovery of [14C]oestrone added) and the specific activity of the substrate.

E1-STS enzyme = molecular target: T3, E1-STS enzyme (Homo sapiens, UniProt P08842); settings: cited from earlier work
T3 sequence (P08842 22-583): T1 sequence (P08842 22-583)

[1] = system: Meth A sarcoma, B16 melanoma or MDA-MB-435 estrogen receptor negative (ER−) breast cancer cells; settings: subcutaneous injection of tumour cells; cited from earlier work
tubulin = settings: at high concentrations; cited from earlier work
T47D cells = assay: IC50 in T47D cells (table footnote); type: cell-based; settings: Homo sapiens
Experimental: The STS inhibition provided by the compounds was determined in accordance with a plate assay and the Protocols set out herein.

[2] = in vivo; cited from earlier work
[3] = rats; cited from earlier work
[4] = rats, higher than that of estradiol; cited from earlier work
[5] = 0.1 μM, -ve % means stimulation
[6] = read-out: Plate assay % inhibition
[7] = 10 nM, superscript 1 or 2 = run with the reference values of that footnote, -ve % means stimulation
[8] = 1 μM, superscript 1 or 2 = run with the reference values of that footnote, -ve % means stimulation
[9] = 0.1 μM, read-out: Plate Assay, % inhibition
[10] = 1 μM, read-out: Plate Assay, % inhibition
[11] = 10 μM, read-out: Plate Assay, % inhibition

Compound: COc1cc2c(cc1O)CCC1C2CC[C@@]2(C)C1CC[C@@]2(O)Cc1cccc(Br)c1 (stereo partly drawn)
- melting point: 173 to 177 °C

Compound: C[C@]12CCC3c4ccc(O)cc4CCC3C1CC[C@@]2(O)Cc1ccccn1 (stereo partly drawn)
- melting point: 250 to 255 °C

Compound: C[C@]12CC[C@@H]3c4ccc(OS(N)(=O)=O)cc4CC[C@H]3[C@@H]1CC[C@@H]2O [BLE00084]
- Plate assay % inhibition (STS; [5]): 4%
- Plate assay % inhibition (STS; 10 μM, -ve % means stimulation): 23%

Compound: CC1=C2CCC3c4ccc(OS(N)(=O)=O)cc4CCC3C2CC1 (stereo not drawn) [BLE00086]
- inhibition at 0.1 µM (STS; [6]): 8%
- inhibition at 1 µM (STS; [6]): 3%
- inhibition at 10 µM (STS; [6]): 14%
- inhibition at 10 µM (T47D cell): 93.2%

Compound: COc1cc2c(cc1O)CCC1C2CC[C@@]2(C)C1CC[C@@]2(O)Cc1ccc(C(C)(C)C)cc1 (stereo partly drawn) [BLE01008, 3,17β-Dihydroxy-17α-(4-tert-butylbenzyl)-2-methoxyestra-1,3,5(10)-triene]
- inhibition at 0.1 µM (STS; [6]): -12%
- inhibition at 1 µM (STS; [6]): -15%
- melting point: 223 to 225 °C

Compound: COc1cc2c(cc1O)CCC1C2CC[C@@]2(C)C1CC[C@@]2(O)Cc1ccccc1 (stereo partly drawn) [BLE01014, 3,17β-Dihydroxy-17α-benzyl-2-methoxyestra-1,3,5(10)-triene]
- inhibition at 0.1 µM (STS; [6]): -14%
- inhibition at 1 µM (STS; [6]): -14%
- melting point: 209 to 213 °C

Compound: COc1cc2c(cc1OS(N)(=O)=O)CC[C@@H]1[C@@H]2CC[C@@]2(C)[C@H]1CC[C@@]2(O)Cc1ccc(C(C)(C)C)cc1 [BLE01016, 3-O-Sulfamate 17β-hydroxy-17α-(4-tert-butylbenzyl)-2-methoxyestra-1,3,5(10) -triene]
- IC50 (steroid sulphatase): 4300 nM
- inhibition at 0.1 µM (STS; [6]): -14%
- inhibition at 1 µM (STS; [6]): -10%
- inhibition at 10 µM (STS; [6]): -3%

Compound: COc1cc2c(cc1OS(N)(=O)=O)CC[C@@H]1[C@@H]2CC[C@@]2(C)[C@H]1CC[C@@]2(O)Cc1ccccc1 [BLE01018, 3-O-Sulfamate 17β-hydroxy-17α-benzyl-2-methoxyestra-1,3,5(10)-triene]
- IC50 (steroid sulphatase): 430 nM
- inhibition at 0.1 µM (STS; [6]): -19%
- inhibition at 1 µM (STS; [6]): -12%

Compound: CC12CCC3c4ccc(OS(N)(=O)=O)cc4CCC3C1CCC2OS(N)(=O)=O (stereo not drawn) [BLE99031B]
- IC50 (steroid sulphatase): 20 nM
- inhibition at 0.1 µM (STS; [6]): 7%
- inhibition at 1 µM (STS; [6]): 12%
- inhibition at 10 µM (STS; [6]): 32%

Compound: CC(=O)NS(=O)(=O)O[C@H]1CCC2C3CCc4cc(O)ccc4C3CC[C@@]21C (stereo partly drawn) [BLE99058]
- Placental Microsomes % inhibition (steroid sulphatase; [7]): 0.9^1%
- Placental Microsomes % inhibition (steroid sulphatase; [8]): 7.8^1%
- Plate assay % inhibition (STS; [5]): 4%
- Plate assay % inhibition (STS; 1 μM, -ve % means stimulation): 1%

Compound: C[C@]12CCC3c4ccc(O)cc4CCC3C1CC[C@@H]2OS(=O)(=O)N(Cc1ccccc1)Cc1ccccc1 (stereo partly drawn) [BLE99060]
- Placental Microsomes % inhibition (steroid sulphatase; [7]): −3.2^2%
- Placental Microsomes % inhibition (steroid sulphatase; [8]): 1.36^2%

Compound: C[C@]12CCC3c4ccc(OS(N)(=O)=O)cc4CCC3C1CC[C@@H]2OS(=O)(=O)N(Cc1ccccc1)Cc1ccccc1 (stereo partly drawn) [BLE99063]
- Placental Microsomes % inhibition (steroid sulphatase; [7]): −1.9^1%
- Placental Microsomes % inhibition (steroid sulphatase; [8]): 38.2^1%
- Plate assay % inhibition (STS; [5]): 0%
- Plate assay % inhibition (STS; 1 μM, -ve % means stimulation): 15%

Compound: CC(=O)NS(=O)(=O)O[C@H]1CCC2C3CCc4cc(OS(N)(=O)=O)ccc4C3CC[C@@]21C (stereo partly drawn) [BLE99065]
- Placental Microsomes % inhibition (steroid sulphatase; [7]): 9.8^1%
- Placental Microsomes % inhibition (steroid sulphatase; [8]): 91.0^1%
- Plate assay % inhibition (STS; [5]): 7%
- Plate assay % inhibition (STS; 1 μM, -ve % means stimulation): 5%
- Plate assay % inhibition (STS; 10 μM, -ve % means stimulation): 23%

Compound: C[C@]12CCC3c4ccc(O)cc4CCC3C1CC[C@H]2OS(=O)(=O)N(Cc1ccccc1)Cc1ccccc1 (stereo partly drawn) [BLE99066]
- Placental Microsomes % inhibition (steroid sulphatase; [7]): 1.4^1%
- Placental Microsomes % inhibition (steroid sulphatase; [8]): 4.5^1%
- Plate assay % inhibition (STS; [5]): 11%
- Plate assay % inhibition (STS; 1 μM, -ve % means stimulation): 5%
- Plate assay % inhibition (STS; 10 μM, -ve % means stimulation): 27%

Compound: CN(C)S(=O)(=O)O[C@H]1CCC2C3CCc4cc(O)ccc4C3CC[C@@]21C (stereo partly drawn) [BLE99067]
- Placental Microsomes % inhibition (steroid sulphatase; [7]): −0.1^1%
- Placental Microsomes % inhibition (steroid sulphatase; [8]): 8.7^1%
- Plate assay % inhibition (STS; [5]): −5%
- Plate assay % inhibition (STS; 1 μM, -ve % means stimulation): −1%
- Plate assay % inhibition (STS; 10 μM, -ve % means stimulation): 50%

Compound: C[C@]12CCC3c4ccc(OS(N)(=O)=O)cc4CCC3C1CC[C@H]2OS(=O)(=O)N(Cc1ccccc1)Cc1ccccc1 (stereo partly drawn) [BLE99068]
- Placental Microsomes % inhibition (steroid sulphatase; [7]): 4.9^1%
- Placental Microsomes % inhibition (steroid sulphatase; [8]): 58.2^1%
- Plate assay % inhibition (STS; [5]): −18%
- Plate assay % inhibition (STS; 1 μM, -ve % means stimulation): −1%
- Plate assay % inhibition (STS; 10 μM, -ve % means stimulation): 19%

Compound: CN(C)S(=O)(=O)OC1CCC2C3CCc4cc(OS(N)(=O)=O)ccc4C3CCC12C (stereo not drawn) [BLE99069]
- Placental Microsomes % inhibition (steroid sulphatase; [7]): 30.3^1%
- Placental Microsomes % inhibition (steroid sulphatase; [8]): 96.3^1%
- Plate assay % inhibition (STS; [5]): 3%
- Plate assay % inhibition (STS; 1 μM, -ve % means stimulation): 10%

Compound: CCCCCN(CCCCC)S(=O)(=O)O[C@H]1CCC2C3CCc4cc(O)ccc4C3CC[C@@]21C (stereo partly drawn) [BLE99073]
- Placental Microsomes % inhibition (steroid sulphatase; [7]): 1.2^2%
- Placental Microsomes % inhibition (steroid sulphatase; [8]): −11.8^2%

Compound: CCCCCN(CCCCC)S(=O)(=O)O[C@H]1CCC2C3CCc4cc(OS(N)(=O)=O)ccc4C3CC[C@@]21C (stereo partly drawn) [BLE99074]
- Placental Microsomes % inhibition (steroid sulphatase; [8]): 23.7^2%

Compound: COc1cc2c(cc1OS(N)(=O)=O)CC[C@@H]1[C@@H]2CC[C@]2(C)C(=O)CC[C@@H]12 [Compound 2-MOEMATE, 2-methoxyoestrone-3-O-sulphamate, reference compound]
- Plate assay % inhibition (STS; [5]): 15%
- Plate assay % inhibition (STS; 1 μM, -ve % means stimulation): 42%
- Plate assay % inhibition (STS; 10 μM, -ve % means stimulation): 88%
- potency as a steroid sulphatase inhibitor relative to EMATE (E1-STS enzyme): equipotent with EMATE

Compound: COc1cc2c(cc1O)CC[C@@H]1[C@@H]2CC[C@]2(C)[C@@H](O)CC[C@@H]12 [Compound 2-MeOE2, 2-methoxyoestradiol]
- growth of tumours in vivo [1]: inhibits the growth of tumours
- inhibition of colchicine binding to tubulin (tubulin): weak inhibitor of colchicine binding to tubulin

Compound: CSc1cc2c(cc1OS(N)(=O)=O)CCC1C2CCC2(C)C1CCC2(O)Cc1ccc(C(C)(C)C)cc1 (stereo not drawn) [Compound 3]
- inhibition at 0.01 µM (steroid sulphatase; 10 nM): 17.6%
- inhibition at 0.1 µM (steroid sulphatase; 100 nM): 56%
- inhibition at 10 µM (steroid sulphatase; 10 μM): 86.4%
- IC50 (steroid sulphatase; read-out: Placental Microsomes, IC50): 80 nM
- inhibition at 0.1 µM (STS; [9]): < 1%
- inhibition at 1 µM (STS; [10]): < 1%
- inhibition at 10 µM (STS; [11]): 48%

Compound: NS(=O)(=O)Oc1ccc(C(=O)c2ccccc2)cc1 [Compound 6]
- Plate assay % inhibition (STS; 0.1 μM): <1%
- Plate assay % inhibition (STS; 1 μM): 1%
- Plate assay % inhibition (STS; 10 μM): 11%

Compound: CSc1cc2c(cc1OS(N)(=O)=O)CCC1C2CCC2(C)C(=O)CCC12 (stereo not drawn) [Compound 7]
- inhibition at 0.01 µM (steroid sulphatase; 10 nM): 5.4%
- inhibition at 0.1 µM (STS; [9]): 3%
- inhibition at 1 µM (STS; [10]): 53%
- inhibition at 10 µM (STS; [11]): 55%
- IC50 (T47D cells): 2.5 nM

Compound: NS(=O)(=O)Oc1ccc(C(=O)C=Cc2ccccc2)cc1 [Compound 8]
- Plate assay % inhibition (STS; 0.1 μM): <1%
- Plate assay % inhibition (STS; 1 μM): <4%
- Plate assay % inhibition (STS; 10 μM): 14%

Compound: NS(=O)(=O)Oc1ccc2oc3ccccc3c2c1 [Compound 9]
- Placental Microsomes % inhibition (steroid sulphatase; 10 nM): <5%
- Placental Microsomes % inhibition (steroid sulphatase; column head printed "μM"): 66.0%
- Plate assay % inhibition (STS; 0.1 μM): <1%
- Plate assay % inhibition (STS; 1 μM): 1%
- Plate assay % inhibition (STS; 10 μM): 16%

Compound: C[C@]12CC[C@@H]3c4ccc(OS(=O)(=O)O)cc4CC[C@H]3[C@@H]1CCC2=O [Compound E1S, oestrone sulphate]
- half-life in blood [2]: 10 to 12 h

Compound: CC12CCC3c4ccc(OS(N)(=O)=O)cc4CCC3C1CCC2=O (stereo not drawn) [EMATE, oestrone-3-sulphamate, reference compound]
- IC50 (steroid sulphatase): 18 nM
- Placental Microsomes % inhibition (steroid sulphatase; human): 97.8%
- inhibition at 0.01 µM (steroid sulphatase): 27.3%
- inhibition at 0.1 µM (steroid sulphatase): 85.1%
- inhibition at 10 µM (steroid sulphatase): 99.5%
- memory effect [3]: memory enhancing effect
- mode of E1-STS inhibition (E1-STS enzyme): time- and concentration-dependent manner
- oral uterotrophic activity relative to estradiol [4]: 100 times

Compound: COc1cc2c(cc1OS(N)(=O)=O)CCC1C2CCC2(C)C(OS(N)(=O)=O)CCC12 (stereo not drawn) [OSO2NH2, OMe, C-β-OSO2NH2, α-H]
- inhibition at 0.1 µM (STS; [6]): 7%
- inhibition at 1 µM (STS; [6]): 12%
- inhibition at 10 µM (STS; [6]): 32%

Compound: oestrone-3-N-sulphamate
- mode of E1-STS inhibition (E1-STS enzyme): weaker non-time-dependent inactivators

Compound: oestrone-3-S-sulphamate
- mode of E1-STS inhibition (E1-STS enzyme): weaker non-time-dependent inactivators
